In PMC6756013, “B591, a novel specific pan-PI3K inhibitor, preferentially targets cancer stem cells” (Oncogene, 2019):

Legend:
[1] = test system: MDA-MB-231 and SUM-159PT mammospheres; assay: Secondary mammosphere-formation assay; type: cell-based, human; settings: primary mammospheres treated 48 h, then passaged
Description: Cells were treated with indicated agents for 48 h, and cells were harvested and processed for apoptosis assay using the PE-Annexin V/7-AAD Apoptosis Detection Kit. d Representative flow cytometry plots of apoptosis inducing activity of B591 (10 μM) and paclitaxel (10 nM) on monolayer and mammosphere MDA-MB-231 cells. e B591 preferentially targeted CD44^high/CD24^low cells. Cells were treated with B591 or paclitaxel for 2 days. Following a 4-day recovery period, cells were co-stained with CD44 and CD24 antibodies and subjected to FACS analysis. Representative flow cytometry plots show the effect of B591 on CD44^high/CD24^low population in MDA-MB-231 cells in vitro. f B591 decreased mammosphere forming efficiency. Primary MDA-MB-231 mammospheres were treated with B591 or paclitaxel for 48 h. Results of the secondary mammosphere-formation assay are shown. Scale bar represents 40 μm. g B591 decreased the expression of CSC markers in MDA-MB-231 cells. Cells were treated with B591 or paclitaxel for 2 days. […]
In the mammosphere assay, MDA-MB-231 (Fig. 3f) and SUM-159PT (Supplementary Fig. S10D) cells were treated with B591 or paclitaxel, and the mammospheres were collected and subsequently passaged. Secondary Mammosphere-forming activity was determined, which reflects the self-renewal capability of CSCs. […]

[2] = test system: CD44high/CD24low population in mammospheres from SUM-159PT cells; assay: CSCs phenotype assay (CD44/CD24 flow cytometry); type: cell-based; settings: 4 µM
Description: Cells were treated with B591 for 24 h, then the cell suspension was incubated with 20 μl of CD44-APC (#559942, BD Pharmingen, Franklin Lakes, NJ, USA) and 20 μl of CD24-PE (#555428, BD Pharmingen) antibodies for 30 min in dark at 4 ℃. Phenotype was detected by BD FACSCalibur, and data was analyzed with Flowjo. ALDH activity was analyzed with ALDEFLUOR Kit (STEMCELL Technologies, Vancouver, BC, Canada) according to the manufacture’s protocol.

[3] = test system: RD cells; assay: Apoptosis assay (Annexin V-FITC); type: cell-based, human; settings: 48 h
Description: Cells were seeded in six-well plates at a density of 2×10^5 cells per well and kept overnight at 37℃ humidified incubator with 5% CO2. The next day, cells were treated with B591 for 48 h. Cells were then collected and stained using Annexin V-FITC Apoptosis Detection Kit I (BD Pharmingen™, Franklin Lakes, NJ, USA) according to manufacturer’s instruction. In brief, cells were washed with cold PBS twice and with binding buffer once, about 1×10^5 cells were resuspended in 100 μl Annexin-V binding buffer, followed by incubation with FITC conjugated Annexin V and propidium iodide (PI) for 15 min at room temperature in the dark. The apoptosis assay was performed by using BD FACSCalibur flow cytometry.
Supplementary Fig. S8. B591 induces G0/G1 cell cycle arrest and apoptosis in tumor cells. […] The cells were harvested and analyzed for cell cycle profile. […] The cells were harvested and processed for apoptosis assay using the Annexin V-FITC Apoptosis Detection Kit. (D) Quantification of flow cytometry analysis of apoptosis. Results were presented as mean ± SD (n = 3). ^***p <0.001, difference versus DMSO-treated control group.

[4] = test system: lung metastasis of 4T1 cells; assay: Breast cancer metastasis study; type: in vivo, NOD/SCID mice; settings: 8 mg/kg intraperitoneally once a day
Description: Studies implicated that the process termed EMT is associated with features of CSCs, which are considered to be involved in metastasis, a major cause of cancer-associated deaths. 4T1 murine mammary carcinoma cells spontaneously produce highly metastatic tumors that can metastasize to the lung, liver, lymph nodes, and brain while the primary tumor is growing in situ. To determine the efficacy of B591 on tumor metastasis, the metastasis model was established by incubating 4T1 cells into the mammary gland of NOD/SCID mice and treated with 8 mg/kg of B591 intraperitoneally once a day. B591 decreased more than 50% of the metastatic tumors in the lung which spontaneously metastasize from the primary tumor in the mammary gland (Fig. 6a).
To establish the metastasis model, 3 × 10^5 of 4T1 cells were incubated into the mammary fat pad of NOD/SCID mice. When tumor volume reached about 50 mm^3, mice were randomly divided into two groups for treatment with 8 mg/kg of B591 or vehicle (i.p.) for 2 months. The metastatic tumors in lung were stained with ink as previously reported.

[5] = test system: phosphorylation of Akt and ERK in RD cells; assay: Immunoblotting of feedback activation of Akt and ERK; type: cell-based, human; settings: up to 24 h, B591 10 μM
Description: Fig. 2 B591 inhibits PI3K/Akt pathway in multiple cancer cell lines. a Representative images of Akt1 redistribution in IGF-1-treated cells in the absence or presence of B591. Scale bar represents 10 μm. Arrows indicate IGF-1-mediated membrane translocation detected by the image analysis algorithm. b Inhibition of mTORC1 and mTORC2 signaling in multiple cancer cell lines, exposed for 5 h to increasing concentrations of B591. c HepG2 cells were treated with DMSO or 20 μM of B591 for 5 h. Immunofluorescence (red) intensity reflects eIF4E subcellular distribution. Cells were visualized with high content reader. Representative images are shown, and scale bar represents 50 μm. d Nuclear-to-cytoplasmic ratio of eIF4E in five cancer cell lines was determined via high content reader. e The phosphorylation of AKT and ERK was determined by immunoblotting in RD cells in the presence of 10 μM of B591 after indicated time of exposure. f Inhibition of the phosphorylation of AKT and ERK in RD cells treated with B591, PI-103 or Rapamycin for 24 h was determined by immunoblotting
Despite a significant efficacy in preclinical models, the clinical tumor response to mTORC1 inhibitors, such as rapalogs, is modest. […]

Cc1cc2c(cc1C)[n+](Cc1ccccc1Br)cn2Cc1ccc2c(c1)CCO2.[Br-] [B591, 3-(2-bromobenzyl)-1-((2,3-dihydrobenzofuran-5-yl)methyl) -5,6-dimethyl-1H-benzo[d]imidazol-3-ium bromide]
Secondary mammosphere-forming ability [1]: strikingly suppressed | Decrease of CD44high/CD24low population [2]: 82% | Apoptosis induction [3]: significant apoptosis inducing effect | Decrease of metastatic tumors in the lung [4]: more than 50% | Phosphorylation of Akt and ERK [5]: effectively suppressed the phosphorylation of Akt and ERK over the whole time course of 24 h
